Reference: patent publication US20230053540A1, “TREATMENT OF LIVER INJURY” (Massachusetts Institute of Technology, priority 2019, published 2023)

System: hepatocytes
Assay: Seq-Well scRNA-Seq of hepatocytes after APAP overdose (signature scores, DEG vs untreated)
Type: in vivo, mouse
Conditions: A6 vs UT

SMILES: CC(=O)Nc1ccc(O)cc1 [APAP, acetaminophen]
- Ddc avg_logFC: −0.3608
- Ddc pct.1: 0.241
- Ddt avg_logFC: −0.5222
- Ddx3x avg_logFC: 0.6569
- Ddx3y A6logFC: 0.3395
- Ddx5 avg_logFC: 0.5229
- Ddx6 avg_logFC: 0.4443
- Ddx6 pct.1: 0.527
- Ddx21 avg_logFC: 0.7314
- Ddx27 A6logFC: 0.2522
- Ddx27 avg_logFC: 0.2522
- Ddx27 pct.1: 0.286
- Deb1 A6logFC: −0.267
- Deb1 avg_logFC: −0.267
- Deb1 pct.1: 0.274
- Dera A6logFC: −0.2674
- Dera avg_logFC: −0.2674
- Dera pct.1: 0.32
- Derl2 A6logFC: −0.3317
- Dgkd avg_logFC: 0.3708
- Dgkd pct.1: 0.282
- Dhrs3 avg_logFC: −0.4676
- Dhrs3 pct.1: 0.198
- Dhrs4 A6logFC: −0.3321
- Diap1 A6logFC: 0.3259
- Diap1 avg_logFC: 0.3259
- Diap1 pct.1: 0.382
- Dio1 avg_logFC: −0.5453
- Dio1 pct.1: 0.253
- Dkc1 avg_logFC: 0.3258
- Dkc1 pct.1: 0.315
- Dnaja2 A6logFC: 0.3723
- Dnajc5 A6logFC: 0.3265
- Dnajc19 A6logFC: −0.316
- Dot1l avg_logFC: 0.397
- Dot1l pct.1: 0.282
- Dsp A6logFC: 0.2655
- Dsp avg_logFC: 0.2655
- Dsp pct.1: 0.32
- Dst avg_logFC: 0.511
- Dst pct.1: 0.43
- Dusp5 avg_logFC: 0.2964
- Dusp6 avg_logFC: 0.5916
- Dusp16 avg_logFC: 0.4605
- Dusp16 pct.1: 0.372
- Dync1h1 A6logFC: 0.3796
- Eaf1 avg_logFC: 0.5218
- Eaf1 pct.1: 0.427
- Ebpl avg_logFC: −0.4503
- Ebpl pct.1: 0.196
- Eea1 A6logFC: 0.2612
- Eea1 avg_logFC: 0.2612
- Eea1 pct.1: 0.363
- Efhd2 avg_logFC: 0.5838
- Egr1 avg_logFC: 0.5846
- Egr1 pct.1: 0.589
- Eif1a avg_logFC: 0.7953
- Eif3a avg_logFC: 0.3147
- Eif3a pct.1: 0.542
- Eif4a1 A6logFC: 0.2519
- Eif4a1 avg_logFC: 0.2519
- Eif4a1 pct.1: 0.418
- Eif4b A6logFC: 0.3682
- Eif4ebp1 A6logFC: 0.2617
- Eif4ebp1 avg_logFC: 0.2617
- Eif4ebp1 pct.1: 0.387
- Eif4g1 avg_logFC: 0.3749
- Eif4g1 pct.1: 0.723
- Eif4g2 avg_logFC: 0.5597
- Eifia A6logFC: 0.3147
- Eifib A6logFC: 0.2503
- Eific A6logFC: 0.302
- Ell2 avg_logFC: 0.4172
- Ell2 pct.1: 0.535
- Elovl3 avg_logFC: −0.5067
- Elovl3 pct.1: 0.568
- Elovl5 A6logFC: 0.3352
- Elovl5 avg_logFC: 0.3352
- Elovl5 pct.1: 0.63
- Epas1 avg_logFC: 0.7758
- Epb4.1 avg_logFC: 0.5628
- Epb4.1 pct.1: 0.537
- Erf3b avg_logFC: 0.2503
- Erf3b pct.1: 0.449
- Errfi1 avg_logFC: 0.3937
- Errfi1 pct.1: 0.943
- Etnppl avg_logFC: 0.4182
- Etnppl pct.1: 0.706
- Ets2 avg_logFC: 0.6956
- Fabp1 avg_logFC: −1.016
- Fabp2 avg_logFC: −0.6156
- Fam25c A6logFC: −0.2977
- Fam107b avg_logFC: 0.4633
- Fam107b pct.1: 0.449
- Fam134b avg_logFC: 0.8936
- Fam195a A6logFC: −0.2649
- Fam214a A6logFC: −0.2658
- Fbxo21 A6logFC: −0.2631
- Fcgr3 avg_logFC: 0.3082
- Fcgr3 pct.1: 0.107
- Fdps A6logFC: −0.2663
- Fdx1 avg_logFC: −0.6234
- Fga avg_logFC: 0.6934
- Fgb avg_logFC: 0.6469
- Fgg avg_logFC: 0.6153
- Fitm1 avg_logFC: −0.3242
- Fitm1 pct.1: 0.012
- Fkbp5 avg_logFC: 0.5161
- Fndc3b avg_logFC: 0.4096
- Fndc3b pct.1: 0.315
- Fpgs avg_logFC: −0.3494
- Fpgs pct.1: 0.146
- Ftsj3 A6logFC: 0.2552
- Ftsj3 avg_logFC: 0.2552
- Ftsj3 pct.1: 0.346
- Furin avg_logFC: 0.2536
- Furin pct.1: 0.477
- Fus A6logFC: 0.3393
- Fxyd1 avg_logFC: −0.4799
- Fxyd1 pct.1: 0.432
- Fxyd5 avg_logFC: 0.2743
- G6pc avg_logFC: −0.9601
- Gabarap avg_logFC: −0.4425
- Gabarap pct.1: 0.518
- Gadd45a A6logFC: 0.2829
- Gadd45a avg_logFC: 0.2829
- Gadd45a pct.1: 0.251
- Gadd45gip1 A6logFC: −0.3041
- Gamt avg_logFC: −0.5603
- Gars A6logFC: 0.2576
- Gars avg_logFC: 0.2576
- Gars pct.1: 0.334
- Gcat A6logFC: −0.2587
- Gcat avg_logFC: −0.2587
- Gcat pct.1: 0.315
- Gcgr A6logFC: −0.2576
- Gcgr avg_logFC: −0.2576
- Gcgr pct.1: 0.446
- Gch1 avg_logFC: −0.2691
- Gch1 pct.1: 0.461
- Gclc avg_logFC: 1.903
- Gclm avg_logFC: 0.2699
- Gclm pct.1: 0.695
- Gcnt2 avg_logFC: 0.5375
- Gda A6logFC: 0.2663
- Gda avg_logFC: 0.2663
- Gda pct.1: 0.243
- Gfra1 avg_logFC: 0.3864
- Gfra1 pct.1: 0.599
- Gjb2 avg_logFC: 0.6082
- Gldc A6logFC: 0.2802
- Gldc avg_logFC: 0.2802
- Gldc pct.1: 0.465
- Glo1 avg_logFC: −0.4066
- Glo1 pct.1: 0.513
- Glyat avg_logFC: −0.6477
- Glyctk A6logFC: 0.2977
- Gm4952 avg_logFC: −0.4987
- Gm4952 pct.1: 0.198
- Gm5424 A6logFC: 0.2698
- Gm5424 avg_logFC: 0.2698
- Gm5424 pct.1: 0.411
- Gm13775 avg_logFC: −1.066
- Gm15564 avg_logFC: 1.443
- Gm20594 A6logFC: 0.2957
- Gm23388 avg_logFC: 0.4162
- Gm23388 pct.1: 0.222
- Gm23935 avg_logFC: 0.4242
- Gm23935 pct.1: 0.878
- Gm24187 avg_logFC: 0.4319
- Gm24187 pct.1: 0.2
- Gm24601 avg_logFC: 0.4684
- Gm26917 avg_logFC: 0.6012
- Gm26917 pct.1: 0.382
- Gm26924 avg_logFC: 1.161
- Gn13 avg_logFC: 0.576
- Gnai2 A6logFC: 0.2817
- Gnai2 avg_logFC: 0.2817
- Gnai2 pct.1: 0.391
- Gnas A6logFC: 0.2589
- Gnas avg_logFC: 0.2589
- Gnas pct.1: 0.79
- Gne avg_logFC: −0.4251
- Gne pct.1: 0.263
- Gnl2 avg_logFC: 0.3905
- Gnl2 pct.1: 0.384
- Gnmt avg_logFC: −0.3334
- Gnmt pct.1: 0.962
- Golga4 avg_logFC: 0.3521
- Gpt2 avg_logFC: 0.5391
- Gpx1 avg_logFC: −0.7686
- Grn avg_logFC: 0.5408
- Gsk3b avg_logFC: 0.4065
- Gsk3b pct.1: 0.384
- Gsr A6logFC: 0.4128
- Gsta1 avg_logFC: 0.4076
- Gstk1 A6logFC: −0.2828
- Gstk1 avg_logFC: −0.2828
- Gstk1 pct.1: 0.351
- Gstm3 avg_logFC: −0.4111
- Gstm3 pct.1: 0.265
- Gstz1 avg_logFC: −0.4641
